The text below walks through data of PubChem BioAssay (NCI).

Holding throughout (assay): inhibition of tumour cell growth, NCI panel, 48 h
Experiment [1] relates to A549 NSCLC.
For experiment [2], the system named is ACHN renal.
Experiment [3] concerns CCRF-CEM leukemia.
Experiment [4] deals with EKVX NSCLC.
Experiment [5] has as its system HT29 colon.
The subject of experiment [6] is MALME-3M melanoma.
Experiment [7] deals with NCI-H460 lung.
Experiment [8] deals with SF-295 CNS.
The subject of experiment [9] is U251 CNS.
The test system of experiment [10] is CAKI-1 renal.

“And” between values parts separate entries of the source, which are not always exact repeats. Equal entries are not always repeated.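 Cultured in 96-well plates, cells were exposed to test compound for 48 hours across five concentrations. At the GI50, growth is halved. The concentration for full growth arrest is given as TGI.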 Some results are limits rather than exact numbers.

As for `O=C(O)COc1ccc2c(=O)c3sc4c(=O)c5ccccc5c(=O)c4c3c(=O)c2c1`, the GI50 was 11.2 µM in experiment [1]; 23 µM in experiment [2]; 23.6 µM in experiment [3]; 16.8 µM in [4]; 22 µM in experiment [5]; 2.12 µM in [6]. In addition, the GI50 in experiment [7] was 3.51 µM; in experiment [8], 6.72 µM; in [9] it was 13.7 µM. The TGI was 26.5 µM in experiment [1]; above 100 µM in [2]; 62.9 µM in experiment [3]; 78.8 µM in experiment [4]; above 100 µM in [5]; 4.59 µM in experiment [6]. Further, the TGI in experiment [7] was 10.4 µM; in [8] it was 20.6 µM; in [9], 32.8 µM.
For `N.N.N.N.O=C([O-])CCl.O=C([O-])CCl.[Co+3].[O-][Cl+3]([O-])([O-])[O-]`, the GI50 in experiment [1], in experiment [2], in experiment [3], in experiment [4], in experiment [5] and in experiment [6] was above 100 µM throughout. Besides, the GI50 in experiment [7], in experiment [8] and in [9] was above 100 µM in each case. In addition, the TGI in experiment [1], in [2], in experiment [3], in experiment [4], in experiment [5] and in [6] was above 100 µM each time. Also, the TGI in [7], in experiment [8] and in experiment [9] was above 100 µM in each case.
`COC(=O)C1c2cc3c(cc2C(OC2OC(C)C(OC)C(C)(OC)C2OC)CC1(C)O)C(=O)c1c(O)cc2c(c1C3=O)OC1OC2(C)C(O)C([N+](C)(C)[O-])C1O` (stereo not drawn): the TGI in experiment [1] is above 75.8 µM; in experiment [2], above 100 µM; in experiment [10], above 28.3 µM; in experiment [3], 0.921 µM; in experiment [4] it was 4.59 µM; in experiment [6], 1.25 µM. The compound also returned a TGI in experiment [8] above 42 µM.
`NC(N)=N/N=C/c1c(-c2ccsc2)nc2sccn12`: the GI50 in experiment [1] was 21.7 µM; in [2], 16.9 µM; in experiment [10] it was 10.3 µM; in experiment [3], 1.48 µM; in experiment [4] it was 15.1 µM; in [5], 11.6 µM. Also, the GI50 in experiment [7] is 14.8 µM; in [8] it was 11.4 µM; in [9] it was 15.8 µM. Further, the TGI in experiment [1] is 43.7 µM; in experiment [2] it was 32 µM; in experiment [10], 21.9 µM; in experiment [3], 6.07 µM; in experiment [4], 29.4 µM; in [5] it was 25.3 µM. Also, the figures for the TGI in experiment [7], in experiment [8] and in experiment [9] were 28 µM, 23.6 µM and 30 µM, respectively.
In the case of `CC1(C)CC(=O)C(C=NC(=S)c2ccccc2)=C(O)C1`, the TGI in experiment [1], in experiment [2], in experiment [10], in experiment [3], in [4] and in experiment [5] was above 100 µM in each case. For the same compound, the TGI in experiment [7], in experiment [8] and in experiment [9] was above 100 µM in each case.
Regarding `COc1ccc2occ(CCC(=O)O)c2c1`, the TGI in [1], in experiment [2], in experiment [10], in [3], in experiment [4] and in experiment [5] was above 100 µM each time. The TGI in [7], in experiment [8] and in experiment [9] was above 100 µM in each case.
On to `CC(=O)N=C1N(/C=C2\C(=O)Oc3ccccc3C2=O)C(=O)/C(=C/c2cccc(Cl)c2Cl)N1C`, for which the TGI in [1] is above 100 µM; in [2] it was 34.3 µM; in [10] it was 65.8 µM; in experiment [3], above 100 µM; in experiment [4], above 100 µM; in [5] it was 49.1 µM. Also, the TGI in experiment [6], in experiment [8] and in experiment [9] was above 100 µM each time.
For `Clc1ccc2c(c1)[nH]c1c2nc2ccccn21`, the TGI in experiment [1] is > 100 µM and 74.2 µM; in experiment [2], 83 µM; in experiment [3], 71.3 µM and 48.9 µM; in experiment [4] it was > 100 µM and 63.2 µM; in [5] it was 45.4 µM and 28.9 µM; in experiment [6] it was > 100 µM and 35.7 µM. The TGI in experiment [7] is > 100 µM and 35.9 µM; in [8], > 100 µM and 35.4 µM; in experiment [9], > 100 µM and 24.5 µM. Besides, the GI50 was 28.1 µM in experiment [2]; 22.8 µM and 7.18 µM in experiment [3]; 51.9 µM and 21.6 µM in [4]; > 100 µM and 17.5 µM in experiment [6]; 44.3 µM and 17.4 µM in [7]; > 100 µM and 15.7 µM in [8]. For the same compound, the GI50 in experiment [9] was > 100 µM and 11.9 µM.
Regarding `Nc1nc(Cl)cc(NCCCCCCCCNc2cc(Cl)nc(N)n2)n1`, the TGI is above 100 µM in experiment [1]; 0.735 µM in experiment [2]; 44.7 µM in experiment [10]; above 100 µM in experiment [3]; above 100 µM in [4]; above 100 µM in experiment [5]. Besides, the figures for the TGI in experiment [7], in experiment [8] and in experiment [9] were above 100 µM, 92.1 µM and above 100 µM, respectively.
